According to paper PMC11714206, “Massively Parallel Screening of Toll/Interleukin‐1 Receptor (TIR)‐Derived Peptides Reveals Multiple Toll‐Like Receptors (TLRs)‐Targeting Immunomodulatory Peptides” (Advanced Science, 2024):

Biological target: T1, MyD88^TIR (Homo sapiens, UniProt Q99836)
T1 construct: MyD88 (residues 148–296); 6xHis; made in house; host or cells: E. coli BL21 (DE3)
Experiment: T‐Surf phage library (P8 and P3) selection against MyD88^TIR, four rounds, NGS read counts
Assay type: binding
Details: for P3_MyD88 Rank (after) / P3_MyD88 Rank (before): P3 library; for P8_MyD88 Rank (after) / P8_MyD88 Rank (before): P8 library; for Population: 4th round of selection against MyD88 TIR, share of NGS reads
Procedure, shortened: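 Four panning rounds on TIR domain adsorbed at 5 µg mL^−1; binding 1 h at 20–22 °C, elution with 100 mM HCl. Output: NGS read counts of round‐4 pools versus naïve library.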

[1] = 4R selection against MyD88, rank after grouping
[2] = 4R selection against MyD88, rank before grouping
[3] = P3_MyD88: rank by count after grouping
[4] = P3_MyD88: rank by count before grouping
[5] = P8_MyD88: rank by NGS read count after grouping
[6] = P8_MyD88: rank by NGS read count before grouping
[7] = selection against MyD88 TIR, rank by count after grouping
[8] = selection against MyD88 TIR, rank by count before grouping
[9] = selection against MyD88, rank after grouping
[10] = selection against MyD88, rank before grouping
[11] = selection against MyD88, rank by count after grouping
[12] = selection against MyD88, rank by count before grouping
[13] = P3_MyD88 pool: P3 T-Surf phage library
[14] = P8_MyD88: rank by count after grouping
[15] = P8_MyD88: rank by count before grouping
[16] = P8_MyD88 pool: P8 T-Surf phage library

T1 sequence (Q99836 148-296): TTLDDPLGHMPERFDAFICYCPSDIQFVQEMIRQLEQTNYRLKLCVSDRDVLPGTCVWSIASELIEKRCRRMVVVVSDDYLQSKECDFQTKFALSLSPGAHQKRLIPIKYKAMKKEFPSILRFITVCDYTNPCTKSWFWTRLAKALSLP

FLSYRALEKRFGRLA
P3_MyD88 Rank (after) [1]: 625
P3_MyD88 Rank (before) [2]: 1351

EWIRTAASGAERTSA
Rank (after) [3]: 388
Rank (before) [4]: 2178

YELDFSHFCCLMARR
Rank (after) [5]: 929
Rank (before) [6]: 1947

LKWGSVFLEQTALCD
P3_MyD88 Rank (after) [7]: 222
P3_MyD88 Rank (before) [8]: 2409

DPQDLDWFWVRLIEAL
P8_MyD88 Rank (after) [9]: 493
P8_MyD88 Rank (before) [10]: 2746

STTYLQWGDNWFWDKL
P8_MyD88 Rank (after) [11]: 740
P8_MyD88 Rank (before) [12]: 3819

WDCASNMEQFWDLPYY
Rank (after) [5]: 920
Rank (before) [6]: 1639

SENYATSPWAPELLR
P3_MyD88 Rank (after) [1]: 658
P3_MyD88 Rank (before) [2]: 2990

LSRVPSGHVIPGFVAI
P3_MyD88 Rank (after) [9]: 529
P3_MyD88 Rank (before) [10]: 2378

LKVESWRQALKERLP
Population [13]: 0.00378%

FAANPLSFHVRVKLGG
P8_MyD88 Rank (after) [9]: 501
P8_MyD88 Rank (before) [10]: 1303

YTSLTNRGFLIFRDND
P3_MyD88 Rank (after) [1]: 596
P3_MyD88 Rank (before) [2]: 1624

WPEDYQDIGWFLDNLS
P8_MyD88 Rank (after) [7]: 202
P8_MyD88 Rank (before) [8]: 275

YLLLSVFQTICALRTE
Rank (after) [5]: 963
Rank (before) [6]: 1999

NNLFNELVSKNIRTLM
P3_MyD88 Rank (after) [7]: 237
P3_MyD88 Rank (before) [8]: 3559

LEYRWIDWEYFVGLED
Rank (after) [5]: 886
Rank (before) [6]: 3357

LVAHEISKMLKIFETI
P3_MyD88 Rank (after) [11]: 681
P3_MyD88 Rank (before) [12]: 2284

SSFREGMWRLLELSKK
Population [13]: 0.00408%

DPQELECLYERLFSQM
P8_MyD88 Rank (after) [1]: 667
P8_MyD88 Rank (before) [2]: 2991

YASSSWYLDELCIFC
Rank (after) [5]: 951
Rank (before) [6]: 1858

LKVESWRQALGKAGKL
Population [13]: 0.00349%

STAMTNRGFHTFRDND
P3_MyD88 Rank (after) [11]: 688
P3_MyD88 Rank (before) [12]: 1427

MFGGDTFHDFLDLLA
P8_MyD88 Rank (after) [11]: 690
P8_MyD88 Rank (before) [12]: 3664

GALDEVRKILYANETM
Rank (after) [5]: 908
Rank (before) [6]: 2280

DPQDQEWLYERLFSQM
P8_MyD88 Rank (after) [1]: 619
P8_MyD88 Rank (before) [2]: 2971

LGYQGIDGEYFVGIED
P8_MyD88 Rank (after) [1]: 617
P8_MyD88 Rank (before) [2]: 3328

HWIDWVWDYLLPNLEGPAG
P8_MyD88 Rank (after) [1]: 581
P8_MyD88 Rank (before) [2]: 3518

FDASSSWALDELLRILY
Rank (after) [14]: 404
Rank (before) [15]: 813

YAFTGHLHRYLVQRAA
Population [13]: 0.0032%

DPQDLDWFYETSGEPD
Rank (after) [5]: 911
Rank (before) [6]: 2804

KEPERYQFAIPERDFP
P3_MyD88 Rank (after) [9]: 540
P3_MyD88 Rank (before) [10]: 3681

NRWRNALTAAANLRGG
P3_MyD88 Rank (after) [9]: 510
P3_MyD88 Rank (before) [10]: 3457

SSFREGLWRLLELTKK
Population [13]: 0.0032%

LVALEISKKMTIFATI
P3_MyD88 Rank (after) [7]: 228
P3_MyD88 Rank (before) [8]: 2269

YKLALHFRDWLVGVH
Rank (after) [5]: 901
Rank (before) [6]: 2137

VQWDDSWFWEKLLYA
Rank (after) [5]: 1018
Rank (before) [6]: 2248

SRDYATSPWALDELLR
P3_MyD88 Rank (after) [1]: 627
P3_MyD88 Rank (before) [2]: 3103

SGFREGLWRLLELSKK
Population [13]: 0.00291%

YNLAQYLHVSLMARGI
P8_MyD88 Rank (after) [1]: 664
P8_MyD88 Rank (before) [2]: 2134

DMQDIEWFYVKLIVSI
P8_MyD88 Rank (after) [11]: 754
P8_MyD88 Rank (before) [12]: 3064

NQGRNALTAAADLSGW
P3_MyD88 Rank (after) [11]: 697
P3_MyD88 Rank (before) [12]: 3541

SDVDHLTYLVRVRLCR
P8_MyD88 Rank (after) [11]: 728
P8_MyD88 Rank (before) [12]: 3748

RSSAFQQQLVMALKAQ
P3_MyD88 Rank (after) [1]: 643
P3_MyD88 Rank (before) [2]: 2616

SSWWALEELAHIIE
P8_MyD88 Rank (after) [1]: 634
P8_MyD88 Rank (before) [2]: 3803

DPQDLGWFYERLLSLF
Rank (after) [14]: 441
Rank (before) [15]: 2722

YAFTGHLCRCLVLRGA
P3_MyD88 Rank (after) [9]: 506
P3_MyD88 Rank (before) [10]: 1489

SSFREGLLRLLELNKK
Rank (after) [3]: 139
Rank (before) [4]: 3237

DPQGLAWFYERLVSLL
Rank (after) [14]: 443
Rank (before) [15]: 2664

DPHDLQWLYERLVSLI
Rank (after) [5]: 985
Rank (before) [6]: 2634

YELAFSHCCLFEGHST
Rank (after) [5]: 1007
Rank (before) [6]: 1925

DPQDLDWFYERLVAC
Rank (after) [5]: 1005
Rank (before) [6]: 2779

AYSPWALDELVKIIEA
P8_MyD88 Rank (after) [7]: 214
P8_MyD88 Rank (before) [8]: 303

NGHESEIITVIVDTIV
P3_MyD88 Rank (after) [7]: 221
P3_MyD88 Rank (before) [8]: 3351

WRDVLKYIANLSGWDS
P8_MyD88 Rank (after) [7]: 243
P8_MyD88 Rank (before) [8]: 435

VQWADPWFWDKLAYEK
Rank (after) [5]: 1016
Rank (before) [6]: 2215

WAFASNMAQFWDRLYS
Rank (after) [5]: 878
Rank (before) [6]: 1395

SSAWALNELVQIMKAW
Rank (after) [14]: 399
Rank (before) [15]: 1289

NELVHEWSSKANSVVG
Rank (after) [3]: 452
Rank (before) [4]: 3442

LLAHEISKNMKIFATI
P3_MyD88 Rank (after) [9]: 523
P3_MyD88 Rank (before) [10]: 2262

YVDSPWALDELVKILQ
P8_MyD88 Rank (after) [7]: 207
P8_MyD88 Rank (before) [8]: 300

DPRDLAWFYEVLLSRF
P8_MyD88 Rank (after) [1]: 657
P8_MyD88 Rank (before) [2]: 2618

KQWRNALTAEANLSGW
P3_MyD88 Rank (after) [9]: 557
P3_MyD88 Rank (before) [10]: 3552

DPQDLDWFYEHLVSLL
Rank (after) [14]: 114
Rank (before) [15]: 570

YASSTWWLRELLQIA
Rank (after) [14]: 147
Rank (before) [15]: 208

YKLALHFRVWRVGVSI
Rank (after) [5]: 883
Rank (before) [6]: 2135

NHHLDLPRGKAIKPEILG
Population [13]: 0.00524%

YASSWWALEELLRILY
P8_MyD88 Rank (after) [9]: 568
P8_MyD88 Rank (before) [10]: 1849

NQWRNALTAAAYMSCR
Rank (after) [3]: 463
Rank (before) [4]: 3492

SSFLQKLRRRLELSIV
Rank (after) [3]: 478
Rank (before) [4]: 3124

NQCRNALTAAANLSGC
Rank (after) [3]: 149
Rank (before) [4]: 3467

SSFREGLWRLLGLRKK
P3_MyD88 Rank (after) [9]: 553
P3_MyD88 Rank (before) [10]: 3165

SSFREGLWRLLKLSKK
Population [13]: 0.00349%

LKVESWRQALEKAGKLRYAM
P3_MyD88 Rank (after) [11]: 707
P3_MyD88 Rank (before) [12]: 2496

LGYHWVDWGCFVGIAD
Rank (after) [5]: 958
Rank (before) [6]: 3232

DTKLKKGESIAPELVL
Rank (after) [3]: 185
Rank (before) [4]: 972

KIARCMIFGVFWKAP
P8_MyD88 Rank (after) [9]: 527
P8_MyD88 Rank (before) [10]: 3897

DSFFWDRLLYILHVTE
P8_MyD88 Rank (after) [1]: 654
P8_MyD88 Rank (before) [2]: 3075

GIFREGLWRLLELSKK
Rank (after) [3]: 105
Rank (before) [4]: 919

NYGSNSWALNKLLEIL
P8_MyD88 Rank (after) [9]: 492
P8_MyD88 Rank (before) [10]: 3834

IVQALWSKVHHSLTLF
Rank (after) [14]: 145
Rank (before) [15]: 157
Population [16]: 0.01%

KEVKGWRDALTTVASL
P3_MyD88 Rank (after) [7]: 252
P3_MyD88 Rank (before) [8]: 3659

WALDELLKILDAKETM
Population [16]: 0.0116%

DPQDLDWFYERVVGLF
Rank (after) [5]: 914
Rank (before) [6]: 2759

DWVWDYLLLSVFQTIFARRTE
Rank (after) [14]: 425
Rank (before) [15]: 1033

FLSYREGLWRLLELSKK
P3_MyD88 Rank (after) [9]: 498
P3_MyD88 Rank (before) [10]: 1376
